How the values were obtained:
HIV-1IIIB = assay: Anti-HIV replication assay against wild-type HIV-1IIIB in MT-2 cell line; type: cell-based; details: for EC50 (μM): HIV-1IIIB replication in MT-2 cell line; for EC50: Human immunodeficiency virus 1, MT2
MT-2 cell line = assay: Compound toxicity by XTT in mock-infected MT-2 cells; type: cell-based; details: Homo sapiens, MT2
HIV-1NL4-3 = assay: Anti-HIV replication assay against HIV-1NL4-3 in MT-4 cell line; type: cell-based; details: for EC50: Human immunodeficiency virus 1, MT4, read-out: HIV-1NL4-3 EC50 (μM); for EC50 (μM): HIV-1NL4-3, MT-4 cell line, Table 3 screening, 9 as control
[1] = system: RTMDR (multi-RT inhibitor-resistant strain); assay: Anti-HIV replication assay against RTMDR strain in MT-4 cell line; type: cell-based, HIV-1; details: Human immunodeficiency virus 1, MT4, read-out: RTMDR EC50 (μM)

Row | EC50 (μM) (HIV-1IIIB; Table 1) | Compound | EC50 (HIV-1IIIB) | EC50 (HIV-1NL4-3) | EC50 [1] | further results
1 |  | Cc1cn([C@H]2C[C@H](N=[N+]=[N-])[C@@H](CO)O2)c(=O)[nH]c1=O [AZT, zidovudine, reference compound] |  |  |  | TI (HIV-1IIIB; therapeutic index IC50/EC50, HIV-1IIIB, MT-2, Table 1): 42700; IC50 (MT-2 cell line): 1870 µM
2 |  | CCc1cc(=O)c2ccc3c(c2o1)[C@@H](OC(=O)[C@@]12CC[C@@](C)(C(=O)O1)C2(C)C)[C@@H](OC(=O)[C@@]12CC[C@@](C)(C(=O)O1)C2(C)C)C(C)(C)O3 [Compound 3, reference compound] |  |  |  | HIV-1NL4-3 TI (HIV-1NL4-3; therapeutic index IC50/EC50, MT-4, Table 2 screening): 116
3 | did not show anti-HIV activity | CC(=O)c1ccc2c(c1C)[C@@H](OC(=O)[C@@]13CC[C@@](C)(C(=O)O1)C3(C)C)[C@@H](OC(=O)[C@@]13CC[C@@](C)(C(=O)O1)C3(C)C)C(C)(C)O2 [Compound 4, 3R,4R-Dicamphanoyloxy-2,2,5-trimethyl-6-acetyl-2H-chroman] | > 20 µM |  |  | 
4 | moderate activity | CCOc1c(C(C)=O)ccc2c1[C@@H](OC(=O)[C@@]13CC[C@@](C)(C(=O)O1)C3(C)C)[C@@H](OC(=O)[C@@]13CC[C@@](C)(C(=O)O1)C3(C)C)C(C)(C)O2 [Compound 5] |  |  |  | 
5 |  | Cc1cc(=O)oc2cc(OC(C)(C)[C@@H](COC(=O)[C@@]34CC[C@@](C)(C(=O)O3)C4(C)C)OC(=O)[C@@]34CC[C@@](C)(C(=O)O3)C4(C)C)ccc12 [Compound 6, 7-(2R,3-Di-O-(−)-camphanoyloxy-1,1-dimethylpropoxy)-4-methyl-2H-chromen-2-one] | > 20 µM | > 20 µM | > 20 µM | 
6 |  | Cc1cc(=O)oc2c([C@H](COC(=O)[C@@]34CC[C@@](C)(C(=O)O3)C4(C)C)OC(=O)[C@@]34CC[C@@](C)(C(=O)O3)C4(C)C)c(OC(C)C)ccc12 [Compound 7, 8-(1R,2-Di-O-(−)-camphanoyloxyethyl)-7-isopropoxy-4-methyl-2H-chromen-2-one] | > 20 µM | > 20 µM | > 20 µM | 
7 |  | Cc1cc(=O)oc2c(CSC(=O)[C@@]34CC[C@@](C)(C(=O)O3)C4(C)C)c(OC(C)C)ccc12 [Compound 13] |  |  |  | EC50 (μM) (HIV-1NL4-3): moderate activity
8 |  | COc1ccc(N(Cc2c(OC(C)C)ccc3c(C)cc(=O)oc23)C(=O)[C@@]23CC[C@@](C)(C(=O)O2)C3(C)C)cc1 [Compound 16, 8-[(N-4-Methoxyphenyl-N-(−)-camphanoyl)aminomethyl]-7-isopropoxy-4-methyl-2H-chromen-2-one] |  |  |  | EC50 (μM) (HIV-1NL4-3): moderate activity

Row | Compound | EC50 (μM) (HIV-1IIIB; Table 1) | EC50 (HIV-1IIIB) | EC50 (HIV-1NL4-3) | EC50 [1] | further results
9 | Cc1cc(=O)oc2c([C@H](C)OC(=O)[C@@]34CC[C@@](C)(C(=O)O3)C4(C)C)c(OC(C)C)ccc12 [Compound 8] | lost anti-HIV activity completely | > 20 µM | > 20 µM | > 20 µM | 

— PMC2905049 (Bioorganic & medicinal chemistry, 2010)
